For one series, the system named is RPMI8226 cells. The series can be described thus: anti-PD-L1 antibody-dependent cell-mediated cytotoxicity in RPMI8226 cells. The settings on record: RPMI8226 cells with PBMCs (E/T=15/1), pomalidomide 0.1 μM 72 hours, then anti-PD-L1 antibody 0.5 μg/ml 3 hours, FCM (FIG. 5). Type of series: cell-based. Here is the method: After bone marrow aspiration, fresh bone marrow mononuclear cells (MNC) were obtained by ammonium chloride based-lyses of red cells followed by washing in phosphate-buffered saline (PBS). For ADCC assays, cells were immediately incubated with anti-PD-L1 antibody (BMS-936559, also referred to herein as “MDX-1105” 1 μg/mL) in the presence of Compound A or Compound B in complete medium in 96-well plate. The cells were incubated for 72 h at 37° C. in a 5% CO2 environment. The viability of primary MM cells in BM MNC was determined by near infrared (n-IR) viability dyes. The surviving CD138+ MM cells were enumerated in the presence of Flow-Count Fluorospheres (Beckman Coulter, CA, USA), to determine absolute numbers of viable MM cells. Phenotypic analyses of MNC were performed using a single 5-color combination of monoclonal antibodies containing BV421/PD-L1(CD274)-BV711 (BD Biosciences, San Jose, Calif., USA). PD-L1 on plasma cells was determined using a commercial assay (BD Biosciences, San Jose, Calif., USA). […]
Similarly, RPMI8226 cells were cultured with PBMCs (E/T=15/1) in the presence or absence of pomalidomide (Pom, 0.1 μM) for 72 hours. After subsequent cultivation with anti-PD-L1 antibody (0.5 μg/ml) for 3 hours, percent specific killing was assessed by FCM. […]

Series [1] deals with U266 cells. The experiment in a line: PD-L1 expression in U266 cells cultured in stromal cell supernatant. The settings on record: Compound B 1 μM, 48 hours, FCM (FIG. 3). Type of series: cell-based. The method, then:
Mononuclear cells separated by Ficoll-Hypaque density sedimentation from bone marrow aspirates were cultured in 15% FBS-RPMI1640 for 5-6 weeks to establish long-term bone marrow stromal cells. Culture supernatant from BMSCs was used for stimulation of MM cell lines.
(§1) After bone marrow aspiration, fresh bone marrow mononuclear cells (MNC) were obtained by ammonium chloride based-lyses of red cells followed by washing in phosphate-buffered saline (PBS). For ADCC assays, cells were immediately incubated with anti-PD-L1 antibody (BMS-936559, also referred to herein as “MDX-1105” 1 μg/mL) in the presence of Compound A or Compound B in complete medium in 96-well plate. The cells were incubated for 72 h at 37° C. in a 5% CO2 environment. The viability of primary MM cells in BM MNC was determined by near infrared (n-IR) viability dyes. The surviving CD138+ MM cells were enumerated in the presence of Flow-Count Fluorospheres (Beckman Coulter, CA, USA), to determine absolute numbers of viable MM cells. […] PD-L1 on plasma cells was determined using a commercial assay (BD Biosciences, San Jose, Calif., USA). […]
To determine the effect stromal cell priming has on PD-L1 expression in U266 cells treated with Compound B, U266 cells were cultured in stromal cell supernatant (sup) in the presence or absence of Compound B (1 μM) for 48 hours. PD-L1 expression was assessed by FCM. […]

Series [2] has as its system Mononuclear cells from MM patients' bone marrow aspirates. The experiment in a line: anti-PD-L1 antibody induced cytotoxicity, autologous setting, ex vivo. Type of series: cell-based, human. As to conditions: anti-PD-L1 Ab 0.5 μg/ml, Compound B 0.5 μM, 72 h (FIG. 8 and FIG. 9). The method, then:
After bone marrow aspiration, fresh bone marrow mononuclear cells (MNC) were obtained by ammonium chloride based-lyses of red cells followed by washing in phosphate-buffered saline (PBS). […] The cells were incubated for 72 h at 37° C. in a 5% CO2 environment. The viability of primary MM cells in BM MNC was determined by near infrared (n-IR) viability dyes. The surviving CD138+ MM cells were enumerated in the presence of Flow-Count Fluorospheres (Beckman Coulter, CA, USA), to determine absolute numbers of viable MM cells. Phenotypic analyses of MNC were performed using a single 5-color combination of monoclonal antibodies containing BV421/PD-L1(CD274)-BV711 (BD Biosciences, San Jose, Calif., USA). PD-L1 on plasma cells was determined using a commercial assay (BD Biosciences, San Jose, Calif., USA). After incubation, cells were washed twice in PBS containing 2% BSA, and then re-suspended in PBS for analysis on a Fortessa cytometer (Becton Dickinson, Mountain View, Calif.). MM cell lines were also applied to this method in some experiments.
H929 cells were stained with CFSE and cultured with PBMCs in the presence or absence of pomalidomide (0.1 μM), Compound B (0.25, 0.5, 1 μM) for 72 h. The cells were then incubated with Ab (0.5 μg/ml PD-L1) for 3 h. Cytotoxicity was assessed by FCM (FIG. 7). […]

The subject of series [3] is U266 cells. The series can be described thus: anti-PD-L1 antibody-dependent cell-mediated cytotoxicity in U266 cells. The class given is cell-based. As to conditions: Compound B 1 μM plus stromal cell supernatant 48 hours, then anti-PD-L1 antibody 1 μg/ml and PBMC (E/T=15/1 and 30/1) 5 hours, FCM (FIG. 4). Here is the method:
Multiple myeloma cells were incubated with Calcein-AM (Invitrogen, 2 μg/ml/1 million cells) for 30 min at 37° C. After washing, the cells were used for target cells. Mononuclear cells were obtained from healthy volunteer peripheral blood by Ficoll-Paque density centrifugation and used for effector cells. […] Percent specific lysis was calculated as follows, % specific lysis=[experiment fluorescence−spontaneous fluorescence (no effector)]/[complete lysis (100% killing by detergent)−spontaneous fluorescence (no effector)]×100.
as §1

The test system of series [4] is MM.1S, H929, KMS12-PE, OPM1 and U266 multiple myeloma cells. The experiment in a line: PD-L1 expression in a panel of multiple myeloma cell lines. As to conditions: 2 μM, 48 hours (FIG. 2). The class given is cell-based. The method, then: After bone marrow aspiration, fresh bone marrow mononuclear cells (MNC) were obtained by ammonium chloride based-lyses of red cells followed by washing in phosphate-buffered saline (PBS). For ADCC assays, cells were immediately incubated with anti-PD-L1 antibody (BMS-936559, also referred to herein as “MDX-1105” 1 μg/mL) in the presence of Compound A or Compound B in complete medium in 96-well plate. […] The viability of primary MM cells in BM MNC was determined by near infrared (n-IR) viability dyes. The surviving CD138+ MM cells were enumerated in the presence of Flow-Count Fluorospheres (Beckman Coulter, CA, USA), to determine absolute numbers of viable MM cells. Phenotypic analyses of MNC were performed using a single 5-color combination of monoclonal antibodies containing BV421/PD-L1(CD274)-BV711 (BD Biosciences, San Jose, Calif., USA). PD-L1 on plasma cells was determined using a commercial assay (BD Biosciences, San Jose, Calif., USA). After incubation, cells were washed twice in PBS containing 2% BSA, and then re-suspended in PBS for analysis on a Fortessa cytometer (Becton Dickinson, Mountain View, Calif.). MM cell lines were also applied to this method in some experiments.

Another series has as its system H929 cells. The experiment in a line: anti-PD-L1 antibody-dependent cell-mediated cytotoxicity in H929 cells. The class given is cell-based. The settings on record: H929 cells with PBMCs, Compound B alone 0.25, 0.5, 1 μM, 72 h, then anti-PD-L1 antibody 0.5 μg/ml 3 h, FCM (FIG. 7). Here is the method:
After bone marrow aspiration, fresh bone marrow mononuclear cells (MNC) were obtained by ammonium chloride based-lyses of red cells followed by washing in phosphate-buffered saline (PBS). For ADCC assays, cells were immediately incubated with anti-PD-L1 antibody (BMS-936559, also referred to herein as “MDX-1105” 1 μg/mL) in the presence of Compound A or Compound B in complete medium in 96-well plate. The cells were incubated for 72 h at 37° C. in a 5% CO2 environment. The viability of primary MM cells in BM MNC was determined by near infrared (n-IR) viability dyes. […] PD-L1 on plasma cells was determined using a commercial assay (BD Biosciences, San Jose, Calif., USA). […]
To assess the effect of Compound B in combination with pomalidomide on ADCC using anti-PD-L1 antibody-dependent cell-mediated cytotoxicity in H929 cells, H929 cells were stained with carboxyfluorescein succinimidyl ester (CFSE) and cultured with PBMCs in the presence or absence of pomalidomide (0.1 μM), Compound B (0.25, 0.5, 1 μM) for 72 hours. […] Cytotoxicity was assessed by FCM. […]
H929 cells were stained with CFSE and cultured with PBMCs in the presence or absence of pomalidomide (0.1 μM), Compound B (0.25, 0.5, 1 μM) for 72 h. […] Cytotoxicity was assessed by FCM (FIG. 7). […]

For series [5], the system named is H929 multiple myeloma cells. The experiment in a line: PD-L1 expression by flow cytometry in H929 cells. Type of series: cell-based. As to conditions: Compound A 1 μM and 2 μM, 48 hours, flow cytometry (FIG. 1). The method, then: After bone marrow aspiration, fresh bone marrow mononuclear cells (MNC) were obtained by ammonium chloride based-lyses of red cells followed by washing in phosphate-buffered saline (PBS). For ADCC assays, cells were immediately incubated with anti-PD-L1 antibody (BMS-936559, also referred to herein as “MDX-1105” 1 μg/mL) in the presence of Compound A or Compound B in complete medium in 96-well plate. The cells were incubated for 72 h at 37° C. in a 5% CO2 environment. The viability of primary MM cells in BM MNC was determined by near infrared (n-IR) viability dyes. The surviving CD138+ MM cells were enumerated in the presence of Flow-Count Fluorospheres (Beckman Coulter, CA, USA), to determine absolute numbers of viable MM cells. Phenotypic analyses of MNC were performed using a single 5-color combination of monoclonal antibodies containing BV421/PD-L1(CD274)-BV711 (BD Biosciences, San Jose, Calif., USA). PD-L1 on plasma cells was determined using a commercial assay (BD Biosciences, San Jose, Calif., USA). After incubation, cells were washed twice in PBS containing 2% BSA, and then re-suspended in PBS for analysis on a Fortessa cytometer (Becton Dickinson, Mountain View, Calif.). MM cell lines were also applied to this method in some experiments. […]

As to `Nc1cccc2c1C(=O)N(C1CCC(=O)NC1=O)C2=O` (stereo not shown) [Pomalidomide, pomalidomide], the “percent specific killing (cytotoxicity)” value in the series with RPMI8226 cells is “enhanced”.

Take `O=C(CCCCCCNC(=O)c1cnc(N(c2ccccc2)c2ccccc2Cl)nc1)NO` [Compound B, 2-((2-chlorophenyl)(phenyl)amino)-N-(7-(hydroxyamino)-7-oxoheptyl)pyrimidine-5-carboxamide]: the PD-L1 expression result in the series with U266 cells [1] was “highest”; in series [4], “enhanced”. For the same molecule, in series [2], the anti-PD-L1 antibody induced-cytotoxicity entry was “enhanced”. Further, in the series on U266 cells [3], the percent specific lysis entry is reported as “greatest”. Besides, in the series on H929 cells, the “anti-PD-L1 Ab-induced cytotoxicity” value is “enhanced”.

`O=C(CCCCCCNC(=O)c1cnc(N(c2ccccc2)c2ccccc2)nc1)NO` [Compound A, 2-(diphenylamino)-N-(7-(hydroxyamino)-7-oxoheptyl)pyrimidine-5-carboxamide]: the PD-L1 expression entry in series [5] is recorded as “increased”.

These data come from US11497746B2, “Pharmaceutical combinations comprising a histone deacetylase inhibitor and a programmed death-ligand 1 (PD-L1) inhibitor and methods of use thereof” (Acetylon Pharmaceuticals, Inc., priority 2016, dated 2022).
